Here are results for five compounds from PubChem BioAssay (NCI).

“And” between values parts separate entries of the source, which are not always exact repeats. Identical values can stand only once.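 The compound was tested at five concentrations on cells cultured in 96-well plates, with a 48-hour exposure period. GI50 marks 50% less growth. TGI marks complete inhibition of growth.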

Holding throughout (assay): inhibition of tumour cell growth, NCI panel, 48 h
The test system of assay [1] is HCC-2998 colon.
The test system of assay [2] is HT29 colon.
Assay [3] has as its system SF-268 CNS.
Assay [4] deals with SW-620 colon.
For assay [5], the system named is NCI/ADR-RES ovarian.
Assay [6] relates to MDA-MB-231 breast.
Assay [7] concerns MOLT-4 leukemia.
For assay [8], the system named is SK-MEL-5 melanoma.
Assay [9] has as its system MDA-MB-435.
Assay [10] relates to SF-539 CNS.

As to `O=C(CN1CCN(Cc2ccccc2Cl)CC1)NC1CC(=O)c2c(Br)sc(Br)c21` (stereo not given), the GI50 in assay [1] was 19.8 µM; in [2], 18 µM; in assay [3] it was 19 µM; in assay [4], 19.8 µM; in assay [5] it was 19.6 µM; in [6] it was 21.1 µM. Also, the GI50 in [7] is 27.1 µM; in assay [8] it was 20.3 µM; in assay [9], 21.5 µM; in [10] it was 20.3 µM. Moreover, the TGI in [1] amounted to 35.1 µM; in assay [2] it was 32.2 µM; in assay [3], 36.7 µM; in assay [4], 36.6 µM; in [5], 41.9 µM; in assay [6], 39.8 µM. In addition, the TGI in assay [7] was 85.3 µM; in [8], 38.7 µM; in assay [9], 52.5 µM; in assay [10], 36.1 µM.

Regarding `C[C@@H](N)COc1ccc(-c2cnc3ccc(N[C@H](C)c4cccc(F)c4)nn23)cc1`, the GI50 was 2.01 µM in assay [1]; 1.4 µM in [2]; 1.85 µM in [3]; 1.55 µM in [4]; 2.43 µM in assay [5]; 1.48 µM in [6]. The GI50 in [7] was 2 µM; in assay [8], 1.63 µM; in assay [9], 1.47 µM; in assay [10] it was 1.52 µM. Moreover, the TGI in assay [1] was determined as 4.97 µM; in assay [2] it was 3.82 µM; in assay [3] it was 6.38 µM; in assay [4], 3.44 µM; in [5] it was 7.12 µM; in [6], 3.19 µM. Further, the TGI amounted to 6.44 µM in assay [7], 3.03 µM in [8], 3.07 µM in assay [9] and 2.86 µM in assay [10].

Take `NC(=O)c1cccc2c(N[C@H](CN3CCC3)c3ccc(Cl)c(C(F)(F)F)c3)ncnc12`: the GI50 is 1.17 µM in [1]; 0.981 µM in assay [2]; 1.09 µM in [3]; 3.43 µM in assay [4]; 2.52 µM in assay [5]; 2.44 µM in [6]. In addition, the GI50 in assay [7] is 0.257 µM; in [8], 1.7 µM; in [9], 1.44 µM; in assay [10], 0.154 µM. Also, the TGI in assay [1] stood at 2.88 µM; in [2], 12.1 µM; in assay [3], 12.9 µM; in [4], 16.3 µM; in assay [5] it was 14.4 µM; in [6], 13.7 µM. Also, the TGI was 3.46 µM in assay [7], 3.27 µM in [8], 11.3 µM in assay [9] and 1.71 µM in [10].

For the compound `CS(=O)(=O)CCNCc1ccc(-c2ccc3ncnc(Nc4ccc(OCc5cccc(F)c5)c(Cl)c4)c3c2)o1`, the GI50 was > 10 µM and 4.1 µM and 8.86 µM in [1]; 7.36 µM and 2.2 µM in [2]; > 10 µM and 5.18 µM and 11.6 µM in assay [3]; > 10 µM and 1.94 µM and 3.82 µM in assay [4]; 5.52 µM and 2.9 µM and 4.32 µM in assay [5]; > 10 µM and 4.14 µM and 9.07 µM in [6]. The GI50 in [7] was 4.54 µM and 2.93 µM and 2.94 µM; in [8] it was 3.21 µM and 4.34 µM; in [9], > 10 µM and 4.38 µM and 7.84 µM; in assay [10], > 10 µM and 9.11 µM and 7.5 µM. For the same compound, the TGI was > 10 µM and 17.8 µM and 24.2 µM in [1]; > 10 µM and 15.8 µM in [2]; > 10 µM and > 100 µM and 43.4 µM in assay [3]; > 10 µM and 3.6 µM and 9.46 µM in assay [4]; > 10 µM and > 100 µM and 50.3 µM in assay [5]; > 10 µM and > 100 µM and 29.5 µM in [6]. Also, the TGI in [7] is > 10 µM and > 100 µM and 21.9 µM; in assay [8] it was 22.9 µM and 15.4 µM; in assay [9], > 10 µM and > 30.8 µM and 34.1 µM; in [10], > 10 µM and 98.1 µM and 29.9 µM.

As for `CC1(C)CC(=O)C=C(/C=C/Sc2c(Cl)c(Cl)nc(Cl)c2Cl)C1`, the GI50 in assay [1] was 9.46 µM; in assay [2] it was 16.5 µM; in [3] it was 13 µM; in assay [4], 11.8 µM; in [5] it was 11.3 µM; in assay [6], 7.22 µM. Moreover, the GI50 in assay [7] is 4.61 µM; in [8], 11.8 µM; in assay [9], 2.88 µM; in assay [10], 11.8 µM. The TGI turned out to be 21.3 µM in [1]; 47.1 µM in [2]; 32.4 µM in assay [3]; 32.7 µM in assay [4]; 25.6 µM in [5]; 20.4 µM in [6]. Besides, the TGI in assay [7] was above 100 µM; in assay [8] it was 24.4 µM; in assay [9], 8.2 µM; in assay [10] it was 26.4 µM.
